Holding throughout (format): cell-based, human
For assay [1], the system named is MiaPaCa2 cells. The assay can be described thus: mRNA expression of RD histones (H2B, H3) by qPCR. The source says:
(C) Heatmap of top differentially expressed genes upon JTE-607 treatment. Replication-dependent histones are colored in blue. Expression is plotted as transformed expression value. (D) mRNA expression of H2B and H3 in MiaPaCa2 cells treated with JTE-607. *, P<0.05, **, P<0.01, ***, P<0.001, Ordinary one-way ANOVA with Dunnett's multiple comparisons test. (E) DSeq2 normalized counts of H3F3A and H2AZ1 histone variants (replication-independent) in Panc1 cells treated with JTE-607. […]. (F-H) Volcano plots of Spearman's correlation of CPSF3 and all histone genes (F), replication-dependent histone genes (G) and replication-independent histone genes (H). Each dot represents a histone gene. Blue and red dots denote positive and negative correlation, respectively. (Spearman=−0.15>R>0.15, P<0.05).
As JTE-607 has been previously administered to patients with no cytotoxic effects, we wanted to determine the mechanism underlying the ability of JTE-607 to attenuate PDAC cell proliferation. […] The Spearman's correlation for CPSF3 and 98 histone genes from the CPTAC database (Spearman=−0.15>R>0.15, P<0.05) (FIG. 4F) were calculated. […] A signature by selecting 50 RD histones and assessed PDAC patient survival based on gene expression was generated.
RNA isolation and quantitative PCR. […] Data were analyzed in Microsoft Excel and graphed using GraphPad Prism (v 9.3.0).
In general terms: Real-time PCR tracks product formation cycle by cycle.

Assay [2] concerns HPNE cells. Kind of assay: Micrococcal Nuclease (MNase) assay of chromatin condensation. Conditions: compared with DMSO-treated cells. How it is done: (§1) Therefore, a Micrococcal Nuclease (MNase) assay was performed to assess relative chromatin condensation. In this assay, protein-free DNA is digested by MNase, producing DNA fragmentation patterns that are indicators of whether chromatin is in a condensed or relaxed state. […] To assess chromatin destabilization in a living cell, the HeLa-TI cell line model that has a silenced GFP reporter within a heterochromatic region of the genome was utilized. […] Therefore, GFP expression in HeLa-TI cells was monitored upon JTE-607 treatment by both fluorescence microscopy and flow cytometry.
(§2) Micrococcal digestion. Micrococcal Nuclease (MNase) was performed as previously described. Briefly, cells were trypsinized, washed with 1×RSB buffer (10 mM Tris HCL, pH 7.6; 15 mM NaCl; 1.5 mM MgCl2) and pelleted at 1000 rpm for 4 minutes at room temperature. Cell pellets were resuspended in 1×RSB buffer with 1% TritonX-100, homogenized with a loose pestle (5 strokes) and centrifuged for 5 minutes at 2000 rpm at 4° C. Pellets were washed two times with 1 ml of buffer A (10 mM Tris HCL, pH 7.6; 15 mM NaCl; 60 mM KCl; 0.34 M Sucrose; 0.1% B-mercaptoethanol; 0.15 mM Spermine; 0.5 mM Spermidine; 0.25 mM PMSF) and nuclei were pelleted at 160 g for 10 minutes at 4° C. Nuclei were resuspended in 1.5 mL of buffer A supplemented with 1 mM of CaCl2). Nuclear suspensions (500 μL) were digested with 200 U/mL Micrococcal nuclease at 37° C. at different time points.

Assay [3] deals with Panc1 cells. Described as above. How it is done: as §1, §2
For assay [4], the system named is HPNE cells. The assay can be described thus: Cell cycle analysis (propidium iodide FACS). How it is done:
(§3) Finally, we sought to determine how JTE-607-mediated depletion of RD histones led to defects in cell viability. As RD histones are required for cell cycle progression, we assessed the effects of JTE-607 on cell cycle distribution. […] In contrast, JTE-607 arrested Panc1 and MiaPaCa2 PDAC cells in S-phase of the cell cycle within 24 hours (FIGS. 7A and 7B). To corroborate the impact of CPSF3 knockdown on cell cycle, CPSF3 was transiently knocked-down with siRNA in Panc1 and HPNE cells (FIGS. 13D, 7C). CPSF3 knockdown induced cell cycle arrest in Panc1 cells with minimal effect on HPNE cells (FIGS. 7D and 7E). However, unlike CPSF3 inhibition-induced cell cycle arrest at S-phase, CPSF3 knockdown cells arrested at G2. […] To more specifically investigate the timing and extent of S-phase arrest upon JTE-607 treatment, BrdU incorporation was examined in a time-dependent manner (FIG. 7F). […] This is in support of previous reports where histone defects slow the progression of cells during S-phase. Therefore, JTE-607 destabilizes chromatin and attenuates PDAC cell proliferation through S-phase cell cycle arrest.
(§4) Cell cycle analysis. Cells were trypsinized and resuspended in 1×PBS, then fixed with ice-cold 70% ethanol for 1 hour at −20° C. Cells were then washed with cold 1×PBS and incubated with RNaseA (200 μg/ml) at 37° C. for 1 hour. Propidium iodide (40 μg/ml) was then added, incubated for 1 hour in the dark and analyzed by FACS at 488 nm. Data were analyzed by FCS express software (v7.06.0015).

For assay [5], the system named is MiaPaCa2 cells. Kind of assay: Cell cycle analysis (propidium iodide FACS). Conditions: within 24 hours. As to the method:
as §3, §4

For assay [6], the system named is Panc1 cells. The assay can be described thus: Cell cycle analysis (propidium iodide FACS). Conditions: within 24 hours. How it is done:
as §3, §4

SMILES strings stand for the structures.

Turning to `CCOC(=O)[C@H](Cc1ccccc1)NC(=O)c1cc(Cl)c(OCCN2CCN(C)CC2)c(Cl)c1O` [JTE-607], the “RD histone mRNA expression (H2B, H3)” value with MiaPaCa2 cells [1] was “decrease”. Besides, the “chromatin digestion by MNase” value in the assay with HPNE cells [2] was “no chromatin digestion”; in the assay with Panc1 cells [3] (compared with DMSO-treated cells) it was “rapid and complete chromatin digestion”. For the same molecule, the “mononucleosomes released by MNase digestion” value in the assay on Panc1 cells [3] (after 30 minutes of incubation) is ~4×10^3 normalized FU. Further, the cell cycle distribution entry in the assay on HPNE cells [4] is “no impact on cell cycle distribution”. The “cell cycle arrest phase” value with MiaPaCa2 cells [5] and in the assay with Panc1 cells [6] was “S-phase” each time.
